Consider 2 molecules from patent EP4722205A1, “HETEROCYCLIC COMPOUND AND NOXIOUS ARTHROPOD-CONTROLLING COMPOSITION CONTAINING SAME” (Sumitomo Chemical Company, Limited, priority 2023, dated 2024).

Assay type in all cases: in vivo
The subject of assay [1] is cotton aphids (Aphis gossypii). Put plainly: Test Method 1: foliar spray on cucumber seedling infested with cotton aphids (Formulation example 1). Conditions: 120 h, spray 10 mL/seedling, examined after 5 days, 25°C, read-out: controlling value.
Assay [2] has as its system housefly (Musca domestica). Put plainly: Test Method 8: coated container contact test, housefly. Conditions: 24 h, 40 mg/m^2, female adults, after one (1) day, 25°C, read-out: mortality of insects. The procedure:
(§1) Next, an efficacy of the present compound on controlling harmful arthropods is shown by Test examples. The following tests in the test examples below were conducted at 25°C.
Acetone solution in which test compounds are adjusted to 800 ppm are prepared, and the solution is poured into a container having an internal volume of 20 mL, and the solution is coated uniformly on an inner face of the container such that the test compound is made to be 40 mg/m^2, and the container is then dried.
Five (5) housefly (Musca domestica) female adults are placed in the container, and the cup is covered with the lid. After the prescribed timing is passed, the state of the housefly is examined, and the mortality of insects is calculated by the following equation. [formula]

Assay [3] deals with cotton aphids (Aphis gossypii). Put plainly: Test Method 11: foliar spray on cucumber seedling infested with cotton aphids (Formulation example 5). Conditions: 120 h, spray 10 mL/seedling, examined after 5 days, 25°C, read-out: controlling value.
Assay [4] has as its system Western corn rootworms (Diabrotica virgifera virgifera). Kind of assay: Test Method 5: corn seedling immersion, Western corn rootworm. Conditions: 120 h, read-out: mortality of insects. The procedure:
as §1
Each 1 mg of the test compounds is dissolved into 50 µL of a mixed solution of polyoxyethylene sorbitan monolaurate and acetone (polyoxyethylene sorbitan monolaurate: acetone = 5 : 95 (v/v ratio)). Thereto is added water containing 0.03% by volume of Shindain (registered trademark) to prepare a diluted solution containing a prescribed concentration of the test compound.
A young entire seedling of Corns (Zea mays) is immersed into the diluted solution for 30 seconds. Thereafter, each two grains of the seedlings are installed in a plastic petri dish ([…]), and 10 Western corn rootworms (Diabrotica virgifera virgifera) at the second instar larval stage are released into the dish. After 5 days, the number of the dead insects is counted, and the mortality of insects is calculated by the following equation. Mortality(%) = (Numberofdeadinsects/10) × 100 [formula]

The subject of assay [5] is cotton worm (Spodoptera litura). Kind of assay: Test Method 9: sprayed cabbage seedling, third instar cotton worm (Formulation example 5). Conditions: 144 h, third instar larvae, after 6 days, 25°C, read-out: controlling value.
Assay [6] has as its system diamondback moth (Plutella xylostella). Put plainly: Test Method 4: sprayed cabbage leaves fed to second instar diamondback moth. Conditions: 120 h, second instar larvae, after 5 days, 25°C, read-out: mortality of insects.
In assay [7] the test system is cotton worm (Spodoptera litura). Put plainly: Test Method 3: sprayed cabbage leaves fed to second instar cotton worm. Conditions: 120 h, second instar larvae, after 5 days, 25°C, read-out: mortality of insects.
Assay [8] relates to diamondback moth (Plutella xylostella). Put plainly: Test Method 10: sprayed cabbage seedling, third instar diamondback moth (Formulation example 5). Conditions: 144 h, third instar larvae, after 6 days, 25°C, read-out: controlling value.
Assay [9] concerns common house mosquitos (Culex pipiens pallens). Kind of assay: Test Method 12: mosquito larvae released into diluted solution. Conditions: 24 h, last instar larvae, after 1 day, 25°C, read-out: controlling value. The method, then:
The following tests in the test examples below were conducted at 25°C.
Into the diluted solution, 30 common house mosquitos (Culex pipiens pallens) at the last instar larval stage are released, and after 1 day, the state of the house mosquito larvae is examined, and the mortality of insects is calculated by the following equation. [formula]

Assay [10] concerns German cockroach (Blattella germanica). Kind of assay: Test Method 6: coated container contact test, German cockroach. Conditions: 72 h, read-out: mortality of insects. The procedure: as §1
Acetone solution in which test compounds are adjusted to 800 ppm are prepared, and the solution is poured into a container having an internal volume of 50 mL, and the solution is coated uniformly on an inner face of the container such that the test compound is made to be 40 mg/m^2, and the container is then dried.
Five (5) German cockroach (Blattella germanica) male adults are placed in the container, and the cup is covered with the lid. After the prescribed timing is passed, the state of the German cockroach is examined, and the mortality of insects is calculated by the following equation. [formula]

In the case of `CCS(=O)(=O)c1c(C(=O)N(C)c2nc3cc(F)c(F)cc3s2)nc2ccc(I)cn12` [compound 34], the mortality at 500 ppm in [1] is ≥ 90%; in assay [6], ≥ 80%; in assay [7], ≥ 80%. For the same molecule, the mortality at 40 mg/m2 in [2] was ≥ 80%. For the same molecule, the mortality at 50 ppm in assay [3] (50 ppm) is ≥ 90%; in [5], ≥ 80%; in assay [8], ≥ 80%. Also, the mortality at 200 ppm in assay [3] was ≥ 90%; in [4], ≥ 80%; in assay [5], ≥ 80%; in assay [8] it was ≥ 80%. The mortality at 3.5 ppm in assay [9] was ≥ 90%.

In the case of `CCS(=O)(=O)c1c(C(=O)N(C)c2nc3cc(F)c(F)c(F)c3s2)nc2ccc(Br)cn12` [compound 44], the mortality at 500 ppm was ≥ 90% in [1], ≥ 80% in assay [6] and ≥ 80% in assay [7]. Moreover, the mortality at 40 mg/m2 in assay [2] and in assay [10] was ≥ 80% in each case. For the same molecule, the mortality at 200 ppm in [3] was ≥ 90%; in assay [5] it was ≥ 80%; in assay [8] it was ≥ 80%. Moreover, the mortality at 50 ppm in assay [5] and in assay [8] was ≥ 80% in each case. In addition, the mortality at 3.5 ppm in assay [9] is ≥ 90%.
